From patent US20260034170A1, “NITRIC OXIDE TOPICAL APPLICATION APPARATUS AND METHODS” (NOxy Health Products, Inc., priority 2016, published 2026)

System: bacteria on a surface, such as a person's skin
Assay: dose of nitric oxide required to kill bacteria on a surface

[N]=O [nitric oxide]
dose required to kill bacteria on a surface: ≥ 320 ppm
